# Source: US12686703B2, “Cosmetic tetrapeptide, composition and use” (Sederma, priority 2020, dated 2026)
# Marks after values point to notes of the source that are not given here. Where a SMILES comes first, the peptide text is derived from it. The star is where a group is joined. Palmitoyl = CCCCCCCCCCCCCCCC(=O)*
# Legend:
# Format in all cases: cell-based
# Collagen I (PIP) = assay: ELISA assay of collagen I synthesis (PIP assay) in normal human fibroblasts; details: concentrations of 5 to 15 ppm; NHF, 72 h contact; vs excipient; p < 0.01
# Experimental: Normal human fibroblasts (NHF) in culture are brought into contact with the products to be tested or their excipient (negative control) for 72 h. At the end of the contact, the culture supernatants are removed, and the syntheses of the dermal macromolecules are estimated by ELISA assays. An estimate of cell viability is carried out by Hoechst assay to weight the obtained data.
# Collagen I is evaluated via the PIP assay (carboxy-terminal propeptide of procollagen type I) which is a peptide fragment resulting from the enzymatic degradation of procollagen when the latter is excreted outside the fibroblast (therefore in the culture medium where the assay is carried out).
# Fibrillin 1 = assay: Immunofluorescence assay of Fibrillin 1 formation in normal human fibroblasts; details: 8 ppm; NHF, five-day incubation; p < 0.05
# Experimental: Normal human fibroblasts (NHF) are cultured for at least 24 hours in fibroblast growth medium containing serum. Once confluence was reached, the cells are seeded, and the actives and corresponding controls diluted in a culture medium are added. At the end of a five-day incubation period, the supernatant is removed, the cells are washed with PBS and fixed. The cells are then incubated with the primary Fibrillin 1 monoclonal antibody (11C1.3) (Thermo Fisher) diluted in blocking buffer at a concentration of 1:200. The cells are incubated. The primary antibody is removed, and the cells are washed with PBS. The secondary antibody was added at a dilution of 1:1000 in blocking buffer, then removed and the cells are washed with PBS. The formation of Fibrillin 1 by the cells is visualized using a fluorescence microscope. The obtained images are analyzed using an image processing software assigning a numerical value to the coverage density.
# [1] = test system: Hair Follicle Dermal Papilla Cells (HFDPC); assay: Proliferation study (EdU) on hair follicle dermal papilla cells; details: p < 0.01
# Experimental: (§1) 2.1—Proliferation Studies on Cell Cultures (Hair Follicle Dermal Papilla Cells (HFDPC) and Outer Root Sheath Keratinocytes (ORSK))
# (§2) The cells are seeded in adapted culture media and incubated for 24 h. Then the culture media are removed and changed for test media and cells are incubated. The cells are thereafter contacted with the peptide (diluted at different concentrations in DMSO) and with EdU (Ethynyldeoxyuridine), a thymidine-analogue nucleoside which is incorporate into the newly synthetized in proliferating cells. The cultures are stopped, and cells are labelled using a Edu detection kit.
# [2] = test system: Outer Root Sheath Keratinocytes (ORSK); assay: Proliferation study (EdU) on outer root sheath keratinocytes; details: 5 ppm, p < 0.01
# Experimental: as §1, §2
# [3] = test system: whole hair follicles isolated from scalp explants; assay: Hair growth from hair follicle bulbs (isolated follicles in culture)
# Experimental: Whole follicles (including the infundibulum, upper sheath, bulge, lower sheath, and bulb) are isolated by microdissection from scalp explants issued from surgery. On first day (DO), the hairs are placed individually in wells and keep alive at 37° C. in a humid atmosphere, enriched with 5% CO2, in an adapted culture medium.
# Peptide solutions at 10 ppm and 5 ppm are prepared in the culture medium with 0.1% DMSO.
# On D0, D3, D5 and D7, the peptide products are incorporated into the culture medium. The culture media are completely renewed for each treatment. The control cases receive no treatment other than renewal of the culture medium.
# On day D0, the hairs are removed and stored frozen at −80° C. On D10, the hairs from each case are taken and treated in the same way.
# A photograph of the isolated hairs is taken on DO to measure the hair from the bulb to the end of the hair shaft using an image analysis software. The photographs and length measurements are repeated on D3, D5, D7 and D10. The growth of each hair is monitored individually.
# During the study, the hairs grow. To estimate the effect of the peptide, the average hair length between the peptide and the solvent control are compared, for each time (see below Table 5).
smiles,measurement,setting,value
"CCCCCCCCCCCCCCCC(=O)N[C@@H](CC(C)C)C(=O)N[C@@H](CC(C)C)C(=O)N[C@@H](C)C(=O)N[C@@H](CC(N)=O)C(=O)O [Pal-LLAN-OH, palmitoyl-leucyl-leucyl-alanyl-asparagine] (Palmitoyl-LLAN-OH)",Collagen I (PIP),Collagen I (PIP),+60%
same,Fibrillin 1,Fibrillin 1,+108% (p < 0.05)
same,Cell proliferation variation % vs. control solvent (DMSO),[1]; 5 ppm,+13.7%
same,Cell proliferation variation % vs. control solvent (DMSO),[1]; 10 ppm,+22.15%
same,Cell proliferation variation % vs. control solvent (DMSO),[2],+55%
same,Growth variation compared to solvent control (0.1% DMSO),"[3]; 5 ppm, D3, nsd",+21% (nsd)
same,Growth variation compared to solvent control (0.1% DMSO),"[3]; 5 ppm, D5, p < 0.05",+26%*
same,Growth variation compared to solvent control (0.1% DMSO),"[3]; 5 ppm, D7, p < 0.01",+32%**
same,Growth variation compared to solvent control (0.1% DMSO),"[3]; 5 ppm, D10, p < 0.01",+30%**
same,Growth variation compared to solvent control (0.1% DMSO),"[3]; 10 ppm, D3, nsd",+16% (nsd)
same,Growth variation compared to solvent control (0.1% DMSO),"[3]; 10 ppm, D5, p < 0.05",+28%*
same,Growth variation compared to solvent control (0.1% DMSO),"[3]; 10 ppm, D7, p < 0.01",+37%**
same,Growth variation compared to solvent control (0.1% DMSO),"[3]; 10 ppm, D10, p < 0.01",+38%**
